This is an account of results in article PMC8150835, “An Smp43-Derived Short-Chain α-Helical Peptide Displays a Unique Sequence and Possesses Antimicrobial Activity against Both Gram-Positive and Gram-Negative Bacteria” (Toxins, 2021).

Where a SMILES comes first, the peptide text is derived from it.

What all share (assay type): cell-based
One data set deals with human red blood cells. The data set can be described thus: Hemolytic activity determination. The settings on record: 2% (v/v) hRBCs, peptide 12.5-200 μg/mL, 37 °C, 1 h, absorbance 540 nm; 1% Triton X-100 = 100%; three independent experiments. The protocol: The hemolytic activities of the peptides were determined against human red blood cells (hRBCs). Briefly, fresh hRBCs anticoagulated with sodium citrate were rinsed with 0.9% sodium chloride by centrifugation (1000× g, 5 min). Then, the cells were diluted to a final concentration of 2% (v/v) and prepared in a clear 96-well polypropylene microtiter plate. Next, the samples were mixed with a series of concentrations of the peptide (12.5, 25, 50, 100 and 200 μg/mL) and incubated at 37 °C for 1 h. After that, the samples were centrifuged (2000× g, 10 min), and the absorbances of the supernatants were measured at 540 nm to evaluate the release of hemoglobin. HRBCs treated with 1% Triton X-100 or 0.9% sodium chloride were taken as 100% and 0% hemolysis, respectively.

The test system of data set [1] is Escherichia coli ATCC25922. The data set can be described thus: MIC determination (broth microdilution). The conditions noted are these: MHB, 5 × 10^5 CFU/mL, peptide 0.625 to 40 μg/mL, 37 °C, 18 h, OD 630 nm. How it is done: (§1) The antimicrobial activities of the peptides were tested against S. aureus ATCC29213, E. faecalis ATCC29212, E. coli ATCC25922, K. pneumoniae ATCC700603, P. aeruginosa ATCC27853 and A. baumannii ATCC19606. All these strains were purchased from the China Center of Type Culture Collection (CCTCC).
(§2) The antimicrobial activities of the peptides were determined as previously described. Briefly, the bacteria were incubated at 37 °C and 150 rpm until the log phase of growth. Next, the bacteria were diluted with Mueller-Hinton broth (MHB, Oxoid, UK) and prepared in a clear round-bottom polypropylene 96-well microtiter plate to achieve a final concentration of 5 × 10^5 colony-forming unit (CFU)/mL. Twofold serial dilutions of the peptides were added into each well with the concentrations ranging from 0.625 to 40 μg/mL. The mixed peptides and cells were cultured at 37 °C and 150 rpm for 18 h, and the optical density (OD) was measured at 630 nm. The minimum inhibitory concentration was defined as the lowest peptide concentration with no detectable bacterial growth.

Data set [2] deals with Klebsiella pneumoniae ATCC700603. The data set can be described thus: MIC determination (broth microdilution). The conditions noted are these: MHB, 5 × 10^5 CFU/mL, peptide 0.625 to 40 μg/mL, 37 °C, 18 h, OD 630 nm. The protocol: as §1, §2
(In general: In broth dilution the organism is exposed to a series of concentrations in liquid medium.)

The subject of data set [3] is Enterococcus faecalis ATCC29212. Nature of the data set: MIC determination (broth microdilution). The conditions noted are these: MHB, 5 × 10^5 CFU/mL, peptide 0.625 to 40 μg/mL, 37 °C, 18 h, OD 630 nm. The protocol:
as §1, §2

Data set [4] relates to Staphylococcus aureus ATCC29213. Nature of the data set: MIC determination (broth microdilution). The conditions noted are these: MHB, 5 × 10^5 CFU/mL, peptide 0.625 to 40 μg/mL, 37 °C, 18 h, OD 630 nm. The protocol: as §1, §2
Data set [5] concerns Acinetobacter baumannii ATCC19606. Nature of the data set: MIC determination (broth microdilution). The conditions noted are these: MHB, 5 × 10^5 CFU/mL, peptide 0.625 to 40 μg/mL, 37 °C, 18 h, OD 630 nm. The protocol: as §1, §2
Data set [6] concerns Pseudomonas aeruginosa ATCC27853. Nature of the data set: MIC determination (broth microdilution). The conditions noted are these: MHB, 5 × 10^5 CFU/mL, peptide 0.625 to 40 μg/mL, 37 °C, 18 h, OD 630 nm. The protocol: as §1, §2

By MIC is commonly meant the lowest concentration found to suppress growth. Higher therefore signals a less susceptible organism. `CC[C@H](C)[C@H](NC(=O)[C@H](CCCCN)NC(=O)[C@H](CCC(=O)O)NC(=O)[C@H](C)NC(=O)[C@@H](NC(=O)[C@H](Cc1ccccc1)NC(=O)[C@H](CC(N)=O)NC(=O)[C@H](CCCCN)NC(=O)[C@H](C)NC(=O)[C@H](C)NC(=O)[C@H](CC(N)=O)NC(=O)[C@H](CC(C)C)NC(=O)[C@H](C)NC(=O)[C@@H](N)CCC(N)=O)C(C)C)C(N)=O` [Smp43(25-38)] (H-QALNAAKNFVAEKI-NH2): the “HC10: the concentration of the peptide that causes 10% hemolysis of human red blood cells” value in the data set on human red blood cells is greater than 200 µg/mL. Besides, the MIC in data set [1], in data set [2], in data set [3], in data set [4], in data set [5] and in data set [6] was greater than 40 µg/mL each time.
On to `CC[C@H](C)[C@H](NC(=O)[C@H](CCCCN)NC(=O)[C@H](CCC(=O)O)NC(=O)[C@H](C)NC(=O)[C@@H](NC(=O)[C@H](Cc1ccccc1)NC(=O)[C@H](CC(N)=O)NC(=O)[C@H](CCCCN)NC(=O)[C@H](C)NC(=O)[C@H](C)N)C(C)C)C(=O)NCC(=O)N[C@@H](C)C(=O)N[C@H](C(=O)N1CCC[C@H]1C(N)=O)[C@@H](C)O` [Smp43(29-42)] (H-AAKNFVAEKIGATP-NH2), for which the “HC10: the concentration of the peptide that causes 10% hemolysis of human red blood cells” value in the data set on human red blood cells was greater than 200 µg/mL. The MIC in data set [1], in data set [2], in data set [3], in data set [4], in data set [5] and in data set [6] was greater than 40 µg/mL in each case.
Turning to `CC[C@H](C)[C@H](NC(=O)[C@H](CCCCN)NC(=O)CNC(=O)[C@H](C)NC(=O)[C@@H](NC(=O)[C@H](CCCCN)NC(=O)[C@@H](N)CCCCN)[C@@H](C)O)C(=O)N[C@@H](Cc1c[nH]c2ccccc12)C(=O)N[C@@H](CC(N)=O)C(=O)N[C@@H](CO)C(=O)N[C@@H](CCC(=O)O)C(=O)N1CCC[C@H]1C(=O)N[C@H](C(=O)N[C@@H](CCCCN)C(N)=O)C(C)C` [Smp43(7-20)] (H-KKTAGKIWNSEPVK-NH2), the “HC10: the concentration of the peptide that causes 10% hemolysis of human red blood cells” value with human red blood cells was greater than 200 µg/mL. Further, the minimum inhibitory concentration (MIC) in data set [1], in data set [2], in data set [3], in data set [4], in data set [5] and in data set [6] was greater than 40 µg/mL each time.
As for `CC(C)C[C@H](NC(=O)[C@H](C)NC(=O)[C@H](CCC(N)=O)NC(=O)[C@H](CO)NC(=O)[C@H](CCCCN)NC(=O)[C@H](CC(C)C)NC(=O)[C@H](C)NC(=O)[C@H](CCCCN)NC(=O)[C@@H](N)C(C)C)C(=O)N[C@@H](CC(N)=O)C(=O)N[C@@H](C)C(=O)N[C@@H](C)C(=O)N[C@@H](CCCCN)C(=O)N[C@@H](CC(N)=O)C(N)=O` [Smp43(19-32)] (H-VKALKSQALNAAKN-NH2), the “HC10: the concentration of the peptide that causes 10% hemolysis of human red blood cells” value in the data set on human red blood cells was greater than 200 µg/mL. Also, the MIC in data set [1], in data set [2], in data set [3], in data set [4], in data set [5] and in data set [6] was greater than 40 µg/mL throughout.
`CC(C)C[C@H](NC(=O)[C@H](C)NC(=O)[C@H](CCC(N)=O)NC(=O)[C@H](CO)NC(=O)[C@@H](N)CCCCN)C(=O)N[C@@H](CC(N)=O)C(=O)N[C@@H](C)C(=O)N[C@@H](C)C(=O)N[C@@H](CCCCN)C(=O)N[C@@H](CC(N)=O)C(=O)N[C@@H](Cc1ccccc1)C(=O)N[C@H](C(=O)N[C@@H](C)C(=O)N[C@@H](CCC(=O)O)C(N)=O)C(C)C` [Smp43(23-36)] (H-KSQALNAAKNFVAE-NH2): the “HC10: the concentration of the peptide that causes 10% hemolysis of human red blood cells” value in the data set with human red blood cells was greater than 200 µg/mL. Besides, the MIC in data set [1], in data set [2], in data set [3], in data set [4], in data set [5] and in data set [6] was greater than 40 µg/mL in each case.
Consider `CC(C)C[C@H](NC(=O)[C@H](C)NC(=O)[C@H](CCC(N)=O)NC(=O)[C@H](CO)NC(=O)[C@H](CCCCN)NC(=O)[C@H](CC(C)C)NC(=O)[C@H](C)NC(=O)[C@H](CCCCN)NC(=O)[C@@H](NC(=O)[C@@H]1CCCN1C(=O)[C@@H](N)CCC(=O)O)C(C)C)C(=O)N[C@@H](CC(N)=O)C(=O)N[C@@H](C)C(=O)N[C@@H](C)C(N)=O` [Smp43(17-30)] (H-EPVKALKSQALNAA-NH2), for which the “HC10: the concentration of the peptide that causes 10% hemolysis of human red blood cells” value with human red blood cells was greater than 200 µg/mL. The minimal inhibitory concentration (MIC) in data set [1], in data set [2], in data set [3], in data set [4], in data set [5] and in data set [6] was greater than 40 µg/mL throughout.
On to `CC(C)C[C@H](NC(=O)[C@H](C)N)C(=O)N[C@@H](CCCCN)C(=O)N[C@@H](CO)C(=O)N[C@@H](CCC(N)=O)C(=O)N[C@@H](C)C(=O)N[C@@H](CC(C)C)C(=O)N[C@@H](CC(N)=O)C(=O)N[C@@H](C)C(=O)N[C@@H](C)C(=O)N[C@@H](CCCCN)C(=O)N[C@@H](CC(N)=O)C(=O)N[C@@H](Cc1ccccc1)C(=O)N[C@H](C(N)=O)C(C)C` [Smp43(21-34)] (H-ALKSQALNAAKNFV-NH2), for which the “HC10: the concentration of the peptide that causes 10% hemolysis of human red blood cells” value in the data set with human red blood cells is greater than 200 µg/mL. Also, the MIC in data set [1], in data set [2], in data set [3], in data set [4], in data set [5] and in data set [6] was greater than 40 µg/mL throughout.
In the case of `CC[C@H](C)[C@H](NC(=O)[C@H](CCCCN)NC(=O)CN)C(=O)N[C@@H](Cc1c[nH]c2ccccc12)C(=O)N[C@@H](CC(N)=O)C(=O)N[C@@H](CO)C(=O)N[C@@H](CCC(=O)O)C(=O)N1CCC[C@H]1C(=O)N[C@H](C(=O)N[C@@H](CCCCN)C(=O)N[C@@H](C)C(=O)N[C@@H](CC(C)C)C(=O)N[C@@H](CCCCN)C(=O)N[C@@H](CO)C(N)=O)C(C)C` [Smp43(11-24)] (H-GKIWNSEPVKALKS-NH2), the “HC10: the concentration of the peptide that causes 10% hemolysis of human red blood cells” value with human red blood cells is greater than 200 µg/mL. The MIC in data set [1], in data set [2], in data set [3], in data set [4], in data set [5] and in data set [6] was greater than 40 µg/mL each time.
As for `CC[C@H](C)[C@H](N)C(=O)N[C@@H](Cc1c[nH]c2ccccc12)C(=O)N[C@@H](CC(N)=O)C(=O)N[C@@H](CO)C(=O)N[C@@H](CCC(=O)O)C(=O)N1CCC[C@H]1C(=O)N[C@H](C(=O)N[C@@H](CCCCN)C(=O)N[C@@H](C)C(=O)N[C@@H](CC(C)C)C(=O)N[C@@H](CCCCN)C(=O)N[C@@H](CO)C(=O)N[C@@H](CCC(N)=O)C(=O)N[C@@H](C)C(N)=O)C(C)C` [Smp43(13-26)] (H-IWNSEPVKALKSQA-NH2), in the data set with human red blood cells, the “HC10: the concentration of the peptide that causes 10% hemolysis of human red blood cells” value was greater than 200 µg/mL. Besides, the MIC in data set [1], in data set [2], in data set [3], in data set [4], in data set [5] and in data set [6] was greater than 40 µg/mL in each case.
